According to US5059597A, “7-(4-oxa or 4-thia-2,7-diazabicyclo[3.3.0]oct-2-en-3-yl)-3-quinolone-and-naphthyrido ne-carboxylic acid derivatives as antibacterial agents and feed additives” (Bayer Aktiengesellschaft, priority 1988, dated 1991):
Values after ≈ are worked out from the molar mass of the structure shown. Where two headings read alike, the source gives them in different places.

Key:
[1] = tested on: Enterococcus faecalis 9790; assay: MIC, agar dilution test (Denley multipoint inoculator; Iso-sensitest agar); type: cell-based; conditions: read-out: MIC values
Experimental: (§1) The minimum inhibitory concentrations (MIC) were determined by the series dilution method on Iso-Sensitest agar (Oxoid). For each test substance, a series of agar plates which contained concentrations of the active compound which decreased by a dilution factor of two each time was prepared. The agar plates were inoculated with a multipoint inoculator (Denley). Overnight cultures of the pathogens which had first been diluted so that each inoculation point contained about 10^4 colony-forming particles were used for the inoculation. The inoculated agar plates were incubated at 37° C. and the germ growth was read off after about 20 hours. The MIC value (μg/ml) indicates the lowest active compound concentration at which no germ growth was to be detected with the naked eye.
(§2) The MIC values of some of the compounds according to the invention are shown in comparison with ciprofloxacin in the following table.
(§3) MIC values (mg/l) determined by the agar dilution
(§4) test (Denley multipoint inoculator; Iso-sensitest agar)

[2] = tested on: Staphylococcus aureus 1756; assay: as above; type: cell-based; conditions: read-out: MIC values
Experimental: as §1, §2, §3, §4

[3] = tested on: Morganella morganii 932; assay: as above; type: cell-based; conditions: 37° C., about 20 hours, about 10^4 colony-forming particles
Experimental: as §1, §2, §3, §4

[4] = tested on: Escherichia coli Neumann; assay: as above; type: cell-based; conditions: 37° C., about 20 hours, about 10^4 colony-forming particles
Experimental: as §1, §2, §3, §4

[5] = tested on: Enterococcus faecalis 27101; assay: as above; type: cell-based; conditions: read-out: MIC values
Experimental: as §1, §2, §3, §4

[6] = tested on: Proleus mirabilis 8223; assay: as above; type: cell-based; conditions: 37° C., about 20 hours, about 10^4 colony-forming particles
Experimental: as §1, §2, §3, §4

[7] = tested on: Providencia stuartei 12052; assay: as above; type: cell-based; conditions: 37° C., about 20 hours, about 10^4 colony-forming particles
Experimental: as §1, §2, §3, §4

[8] = tested on: Staphylococcus aureus FK 422; assay: as above; type: cell-based; conditions: read-out: MIC values
Experimental: as §1, §2, §3, §4

[9] = tested on: Proleus vulgaris 1017; assay: as above; type: cell-based; conditions: 37° C., about 20 hours, about 10^4 colony-forming particles
Experimental: as §1, §2, §3, §4

[10] = tested on: Staphylococcus aureus 133; assay: as above; type: cell-based; conditions: read-out: MIC values
Experimental: as §1, §2, §3, §4

[11] = Solubility in water; type: physicochemical; conditions: mesylate salt
[12] = Enterococcus faecalis 9790, 37° C., about 20 hours, about 10^4 colony-forming particles
[13] = Staphylococcus aureus 1756, 37° C., about 20 hours, about 10^4 colony-forming particles
[14] = Enterococcus faecalis 27101, 37° C., about 20 hours, about 10^4 colony-forming particles
[15] = FK422, Staphylococcus aureus FK 422, 37° C., about 20 hours, about 10^4 colony-forming particles
[16] = Staphylococcus aureus 133, 37° C., about 20 hours, about 10^4 colony-forming particles

Structure (SMILES) | MIC [1, 12] [µg/mL] | MIC [2, 13] [µg/mL] | MIC [3] [µg/mL] | MIC [4] [µg/mL] | MIC [5, 14] [µg/mL] | MIC [6] [µg/mL] | MIC [7] [µg/mL] | MIC [8, 15] [µg/mL] | MIC [9] [µg/mL] | MIC [10, 16] [µg/mL] | MIC ([1]; Enterococcus faecalis, 9790, 20 h) [µg/mL] | MIC ([2]; Staphylococcus aureus, 1756, 20 h) [µg/mL] | MIC ([5]; Enterococcus faecalis, 27101, 20 h) [µg/mL] | MIC ([8]; Staphylococcus aureus, FK422, 20 h) [µg/mL] | MIC ([10]; Staphylococcus aureus, 133, 20 h) [µg/mL] | solubility in water [11]
CN1CCOC2CN(c3cc4c(cc3F)c(=O)c(C(=O)O)cn4C3CC3)CC21 (centres unmarked) [Example 10, 1-cyclopropyl-6-fluoro-1,4-dihydro-7-(5-methyl-2-oxa-5,8-diazabicyclo[4.3.0]non-8-yl)-4-oxo-3-quinolinecarboxylic acid] | 2 (≈ 5.16 µM) | 0.125 (≈ 0.323 µM) | 0.5 (≈ 1.29 µM) | 0.125 (≈ 0.323 µM) | 2 (≈ 5.16 µM) | 16 (≈ 41.3 µM) | 64 (≈ 165 µM) | 0.125 (≈ 0.323 µM) | 1 (≈ 2.58 µM) | 0.125 (≈ 0.323 µM) |  |  |  |  |  | 
CN1CCC2CN(c3c(F)cc4c(=O)c(C(=O)O)cn(C5CC5)c4c3F)CC21 (centres unmarked) [Example 18, 1-cyclopropyl-6,8-difluoro-1,4-dihydro-7-(2-methyl-2,7-diazabicyclo[3.3.0]oct-7-yl)-4-oxo-3-quinolinecarboxylic acid] | 0.5 (≈ 1.28 µM) | 0.125 (≈ 0.321 µM) | 0.06 (≈ 0.154 µM) | 0.03 (≈ 0.077 µM) | 0.25 (≈ 0.642 µM) | 1 (≈ 2.57 µM) | 4 (≈ 10.3 µM) | 0.125 (≈ 0.321 µM) | 0.06 (≈ 0.154 µM) | 0.125 (≈ 0.321 µM) |  |  |  |  |  | 
CN1CCC2CN(c3cc4c(cc3F)c(=O)c(C(=O)O)cn4C3CC3)CC21 (centres unmarked) [Example 17, 1-cyclopropyl-6-fluoro-1,4-dihydro-7-(2-methyl-2,7-diazabicyclo[3.3.0]oct-7-yl)-4-oxo-3-quinolinecarboxylic acid] | 2 (≈ 5.38 µM) | 0.5 (≈ 1.35 µM) | 0.5 (≈ 1.35 µM) | 0.125 (≈ 0.337 µM) | 1 (≈ 2.69 µM) | 8 (≈ 21.5 µM) | 8 (≈ 21.5 µM) | 0.5 (≈ 1.35 µM) | 0.5 (≈ 1.35 µM) | 0.5 (≈ 1.35 µM) |  |  |  |  |  | 
O=C(O)c1cn(C2CC2)c2c(F)c(N3CC4CCCNC4C3)c(F)cc2c1=O (centres unmarked) [Example 15, 1-cyclopropyl-7-(2,8-diazabicyclo[4.3.0]non-8-yl)-6,8-difluoro-1,4-dihydro-4-oxo-3-quinolinecarboxylic acid] |  | 0.03 (≈ 0.077 µM) | 0.03 (≈ 0.077 µM) | ≤ 0.015 | 0.03 (≈ 0.077 µM) | 0.5 (≈ 1.28 µM) | 1 (≈ 2.57 µM) | 0.03 (≈ 0.077 µM) | 0.03 (≈ 0.077 µM) | 0.03 (≈ 0.077 µM) |  |  |  |  |  | 
CN1CCCC2CN(c3cc4c(cc3F)c(=O)c(C(=O)O)cn4C3CC3)CC21 (centres unmarked) [Example 14, 1-cyclopropyl-6-fluoro-1,4-dihydro-7-(2-methyl-2,8-diazabicyclo[4.3.0]non-8-yl)-4-oxo-3-quinolinecarboxylic acid] | 0.5 (≈ 1.3 µM) | 0.25 (≈ 0.649 µM) | 0.25 (≈ 0.649 µM) | 0.06 (≈ 0.156 µM) | 0.25 (≈ 0.649 µM) | 4 (≈ 10.4 µM) | 4 (≈ 10.4 µM) | 0.25 (≈ 0.649 µM) | 0.5 (≈ 1.3 µM) | 0.25 (≈ 0.649 µM) |  |  |  |  |  | 
O=C(O)c1cn(C2CC2)c2cc(N3CC4CCNC4C3)c(F)cc2c1=O (centres unmarked) [Example 16, 1-cyclopropyl-7-(2,7-diazabicyclo[3.3.0]oct-7-yl)-6-fluoro-1,4-dihydro-4-oxo-3-quinolinecarboxylic acid] | 0.5 (≈ 1.4 µM) | 0.125 (≈ 0.35 µM) | 0.06 (≈ 0.168 µM) | 0.06 (≈ 0.168 µM) | 0.5 (≈ 1.4 µM) | 4 (≈ 11.2 µM) | 32 (≈ 89.5 µM) | 0.125 (≈ 0.35 µM) | 0.06 (≈ 0.168 µM) | 0.125 (≈ 0.35 µM) |  |  |  |  |  | 
CO[C@@H]1CN(c2c(F)cc3c(=O)c(C(=O)O)cn(C4CC4)c3c2F)C[C@H]1N.Cl (relative stereo) [Example 1, 7-(trans-3-amino-4-methoxy-1-pyrrolidinyl)-1-cyclopropyl-6,8-difluoro-4-oxo-3-quinolinecarboxylic acid hydrochloride] | 0.125 | 0.06 | ≤ 0.015 | ≤ 0.015 | 0.125 | 1 | 1 | 0.06 | ≤ 0.015 | 0.06 |  |  |  |  |  | 
O=C(O)c1cn(C2CC2)c2cc(N3CCNCC3)c(F)cc2c1=O [Ciprofloxacin, ciprofloxacin, reference compound] |  |  | ≤ 0.015 | ≤ 0.015 |  | 1 (≈ 3.02 µM) | 4 (≈ 12.1 µM) |  | ≤ 0.015 |  | 0.25 (≈ 0.754 µM) | 0.25 (≈ 0.754 µM) | 0.05 (≈ 0.151 µM) | 0.25 (≈ 0.754 µM) | 0.25 (≈ 0.754 µM) | 
CS(=O)(=O)O.O=C(O)c1cn(C2CC2)c2c(F)c(N3CC4CCCNC4C3)c(F)cc2c1=O (centres unmarked) [Example 43A, 1-cyclopropyl-7-(2,8-diazabicyclo[4.3.0]non-8-yl)-6,8-difluoro-1,4-dihydro-4-oxo-3-quinolinecarboxylic acid mesylate] |  |  |  |  |  |  |  |  |  |  |  |  |  |  |  | readily soluble in water
CN1CCOC2CN(c3c(F)cc4c(=O)c(C(=O)O)cn(C5CC5)c4c3F)CC21 (centres unmarked) [Example 9, 1-cyclopropyl-6,8-difluoro-1,4-dihydro-7-(5-methyl-2-oxa-5,8-diazabicyclo[4.3.0]non-8-yl)-4-oxo-3-quinolinecarboxylic acid] | 0.25 (≈ 0.617 µM) | 0.06 (≈ 0.148 µM) | 0.5 (≈ 1.23 µM) | 0.25 (≈ 0.617 µM) | 0.25 (≈ 0.617 µM) | 8 (≈ 19.7 µM) | 32 (≈ 78.9 µM) | 0.06 (≈ 0.148 µM) | 0.5 (≈ 1.23 µM) | 0.06 (≈ 0.148 µM) |  |  |  |  |  | 
CO[C@@H]1CN(c2cc3c(cc2F)c(=O)c(C(=O)O)cn3C2CC2)C[C@H]1N.Cl (relative stereo) [Example 2, 7-(trans-3-Amino-4-methoxy-1-pyrrolidinyl)-1-cyclopropyl-6-fluoro-4-oxo-3-quinolinecarboxylic acid hydrochloride] | 0.5 | 0.125 | 0.03 | ≤ 0.015 |  | 4 | 4 | 0.125 | 0.125 | 0.125 |  |  |  |  |  | 
CO[C@H]1CN(c2cc3c(cc2F)c(=O)c(C(=O)O)cn3C2CC2)C[C@H]1N.Cl (relative stereo) [Example 5, 7-(cis-3-Amino-4-methoxy-1-pyrrolidinyl)-1-cyclopropyl-6-fluoro-1,4-dihydro-4-oxo-3-quinolinecarboxylic acid hydrochloride] | 0.25 | 0.125 | ≤ 0.015 | ≤ 0.015 | 0.25 | 2 | 4 | 0.125 | 0.03 | 0.125 |  |  |  |  |  | 
CO[C@H]1CN(c2c(F)cc3c(=O)c(C(=O)O)cn(C4CC4)c3c2F)C[C@H]1N.Cl (relative stereo) [Example 3, 7-(cis-3-Amino-4-methoxy-1-pyrrolidinyl)-1-cyclopropyl-6,8-difluoro-4-oxo-3-quinolinecarboxylic acid hydrochloride] | 0.25 | 0.06 | 0.03 | ≤ 0.015 | 0.125 | 1 | 2 | 0.06 | ≤ 0.015 | 0.03 |  |  |  |  |  | 
CO[C@H]1CN(c2c(F)cc3c(=O)c(C(=O)O)cn(C4CC4)c3c2Cl)C[C@H]1N.O=C(O)C(F)(F)F (relative stereo) [Example 4, 7-(cis-3-amino-4-methoxy-1-pyrrolidinyl)-8-chloro-1-cyclopropyl-6-fluoro-1,4-dihydro-4-oxo-3-quinolinecarboxylic acid trifluoroacetate] | 0.06 | ≤ 0.015 | ≤ 0.015 | ≤ 0.015 | 0.06 | 0.5 | 0.5 | ≤ 0.016 | ≤ 0.015 | ≤ 0.015 |  |  |  |  |  | 
O=C(O)c1cn(C2CC2)c2c(F)c(N3CC4NCCOC4C3)c(F)cc2c1=O (centres unmarked) [Example 8, 1-cyclopropyl-6,8-difluoro-1,4-dihydro-7-(2-oxa-5,8-diazabicyclo[4.3.0]non-8-yl)-4-oxo-3-quinolinecarboxylic acid] | 0.125 (≈ 0.319 µM) | 0.03 (≈ 0.0767 µM) | 0.06 (≈ 0.153 µM) | ≤ 0.015 | 0.125 (≈ 0.319 µM) | 2 (≈ 5.11 µM) | 4 (≈ 10.2 µM) | 0.03 (≈ 0.0767 µM) | 0.06 (≈ 0.153 µM) | 0.03 (≈ 0.0767 µM) |  |  |  |  |  | 
CN1CCCC2CN(c3c(F)cc4c(=O)c(C(=O)O)cn(C5CC5)c4c3F)CC21 (centres unmarked) [Example 13, 1-cyclopropyl-6,8-difluoro-1,4-dihydro-7-(2-methyl-2,8-diazabicyclo[4.3.0]non-8-yl)-4-oxo-3-quinolinecarboxylic acid] | 0.25 (≈ 0.62 µM) | 0.06 (≈ 0.149 µM) | 0.125 (≈ 0.31 µM) | 0.06 (≈ 0.149 µM) | 0.125 (≈ 0.31 µM) | 1 (≈ 2.48 µM) | 2 (≈ 4.96 µM) | 0.06 (≈ 0.149 µM) | 0.03 (≈ 0.0744 µM) | 0.06 (≈ 0.149 µM) |  |  |  |  |  | 
